Results on five compounds are retold here after article PMC7966503, “Deciphering the Pharmacological Mechanisms of Guizhi-Fuling Capsule on Primary Dysmenorrhea Through Network Pharmacology” (Frontiers in Pharmacology, 2021).

Where “and” joins values, the source holds several entries; their conditions need not be identical. Equal entries are not always repeated. Where two headings read alike, the source gives them in different places.

One test deals with T1, recombinant human COX2 (Homo sapiens, UniProt P35354).
T1 construct: purchased Beyotime #S0168
T1 sequence (P35354 18-604): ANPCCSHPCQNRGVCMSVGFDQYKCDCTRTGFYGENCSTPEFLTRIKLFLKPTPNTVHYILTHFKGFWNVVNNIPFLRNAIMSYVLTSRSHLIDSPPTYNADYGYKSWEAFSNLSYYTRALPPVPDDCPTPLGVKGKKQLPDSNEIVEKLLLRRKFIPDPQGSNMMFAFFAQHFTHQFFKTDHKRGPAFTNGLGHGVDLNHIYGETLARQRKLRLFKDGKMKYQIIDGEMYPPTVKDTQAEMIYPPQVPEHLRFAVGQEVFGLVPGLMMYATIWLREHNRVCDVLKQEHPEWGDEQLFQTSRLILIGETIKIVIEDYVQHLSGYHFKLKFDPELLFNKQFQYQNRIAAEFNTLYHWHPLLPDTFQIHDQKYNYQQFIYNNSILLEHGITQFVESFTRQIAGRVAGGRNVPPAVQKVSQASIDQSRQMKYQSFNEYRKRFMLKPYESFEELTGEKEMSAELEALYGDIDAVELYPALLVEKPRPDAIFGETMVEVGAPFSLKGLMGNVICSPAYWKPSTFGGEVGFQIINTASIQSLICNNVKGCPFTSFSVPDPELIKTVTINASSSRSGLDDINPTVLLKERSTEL
The test is described as follows: COX2 activity assay (cyclooxygenase-2 inhibitor screening kit, fluorescence). Type of test: biochemical. Conditions: duplicated samples. The text has this:
And then we selected predicted compounds and a specific target for preliminary analysis of their dosages and ratios as a starting point. In vitro enzyme activity assays were used to analyze the relationship between predicted GZFLC compounds’ different dosages and their intervention intensity on a specific target COX2, and to investigate GZFLC’s intervention intensity on COX2 under the specific ratio of GZFLC compounds which is relatively fixed in GZFLC. The content in the GZFLC (Jiangsu Kanion Pharmaceutical Co., Ltd. Jiangsu, China, No. 170601) was weighed and extracted with dimethyl sulfoxide (DMSO, 32.308:1, W/V, mg/ml) at 37°C for 30 min. The liquid was collected by centrifugation, and the supernatant was filtered through a 0.22 μ filter. The effect of GZFLC or pure chemicals including 1,2,3,4,6-penta-O-galloyl-beta-D-glucopyranose (purity (%) ≥98%, CAS: 14,937–32–7, Pubchem CID: 65238, Nanjing SenBeiJia Biological Technology Co., Ltd.), galloylpaeoniflorin (purity (%) ≥98%, CAS: 122,965–41–7, Pubchem CID: 46882879, Nanjing SenBeiJia Biological Technology Co., Ltd.), ethyl gallate (purity (%)≥98%, CAS: 831–61–8, Pubchem CID: 13250, Nanjing SenBeiJia Biological Technology Co., Ltd.) and gallic acid (purity (%)≥98%, CAS: 149–91–7, Pubchem CID: 370, Nanjing SenBeiJia Biological Technology Co., Ltd.) on COX2 activity was measured using cyclooxygenase-2 inhibitor screening kit (Beyotime, Cat. No. #S0168). Briefly, the recombinant human COX2 assay mixture (total volume = 90μL/well) consisting of assay buffer, cofactor, COX2 enzyme, and test compound (diluted in DMSO, 5.56% DMSO finally in assay) was incubated at 25°C for 5 min. Detection of the product was performed by adding probe (5μL/well). Arachidonic acid was added and the reaction was allowed to proceed for 15 min at 37°C. The fluorescence of the resulting solution was measured using SpectraMax M2e multilabel plate reader (Molecular Devices, United Kingdom). […] Data was represented as X¯±SD of duplicated samples. The effect of the samples on COX2 was calculated using the following equation: Relative activity of COX2(%)=(RFUsample−RFUBW/RFUA−RFUBW)×100%.

The test system of test [1] is oxytocin-induced dysmenorrhea murine model. The test is described as follows: Writhing response in oxytocin-induced dysmenorrhea murine model. Particulars: 0.1 g/kg oral; within 30 min after oxytocin; mean±SEM, n = 10; model group 32.6 ± 8.5. The class given is in vivo, ICR mice. Here is the method: (§1) Oxytocin-induced dysmenorrhea in mice was performed according to the method previously reported ([Sun et al., 2002]). […] Except for the normal group (subcutaneous injection of saline), the other groups were administrated by subcutaneous estradiol benzoate injection (0.05 ml/mouse on the first and 10th day, and 0.025 ml/mouse on the remaining days) for ten consecutive days. […] On the 10th day, oxytocin (0.2 ml/2 IU/mouse) was administered by peritoneal injection 1 h after the last administration. The number of animal writhing times was observed and recorded within 30 min after injection of oxytocin. […] The mice were sacrificed immediately. The uterus tissues were fixed with 10% formalin for further study.

Test [2] has the same test system. The test can be described thus: Uterine histopathology (H&E) in oxytocin-induced dysmenorrhea murine model. The class given is in vivo, ICR mice. Particulars: ibuprofen 0.1 g/kg; GZFLC 0.54 and 1.08 g/kg oral, seven days. Here is the method:
as §1, with “study. The uterus tissues were fixed in 10% formalin and stained with hematoxylin and eosin (H&E). […] According to the severity of the lesion, it was recorded as one point (mild), two points (moderate), three points (severe), four points (extremely severe), no lesion was recorded as 0 point. All scores were accumulated and the average score ( X¯±SD ) of each animal in each group was calculated.” for “study.”

Where [3] appears, read: read-out: IC50, inhibition of the activity of COX2 in vitro (converted).

For `C[C@@]12C[C@@]3(O)O[C@@H](O1)[C@]1(COC(=O)c4ccccc4)[C@H]3C[C@@]12O[C@@H]1O[C@H](COC(=O)c2cc(O)c(O)c(O)c2)[C@@H](O)[C@H](O)[C@H]1O` [galloylpaeoniflorin], the concentration for half-maximal inhibition (IC50) at recombinant human COX2 (setting [3]) is 740 nM and 743 nM. The same measure, in the same setting: the same measure for `CCOC(=O)c1cc(O)c(O)c(O)c1` [ethyl gallate]: 1110 nM.

On to `O=C(O)c1cc(O)c(O)c(O)c1` [gallic acid], for which, at recombinant human COX2 (IC50, inhibition of the activity of COX2 in vitro), the half-inhibitory concentration (IC50) was 1950 nM and 1940 nM. For `CC(C)Cc1ccc(C(C)C(=O)O)cc1` (stereo not drawn) [ibuprofen], in test [1], the “number of writhing times” value amounted to 5.9 ± 2.1. Moreover, the “degree of uterine lesions (histopathology, H&E)” value in test [2] is listed as “reducing the degree of uterine lesions”. As for `O=C(OC[C@H]1O[C@@H](OC(=O)c2cc(O)c(O)c(O)c2)[C@H](OC(=O)c2cc(O)c(O)c(O)c2)[C@@H](OC(=O)c2cc(O)c(O)c(O)c2)[C@@H]1OC(=O)c1cc(O)c(O)c(O)c1)c1cc(O)c(O)c(O)c1` [1,2,3,4,6-penta-O-galloyl-beta-D-glucopyranose], on recombinant human COX2 (setting [3]), the 50% inhibitory concentration (IC50) is 380 nM and 383 nM.
